Source: patent US11358930B2, “Selective potassium channel agonists” (University of Pittsburgh—Of the Commonwealth System of …, priority 2018, dated 2022)
pEC50: −log10 of the molar value. “Also recorded” adds a separate entry of the source.

Key:
Kv7.2/Kv7.3 = molecular target: T1, Kv7.2/Kv7.3 (Homo sapiens, UniProt O43525+O43526); assay: Automated electrophysiology IonWorks Barracuda (IWB) agonist assay in HEK293 cells, Kv7.2/Kv7.3; format: cell-based; conditions: for selectivity index SI = EC2x(Kv7.4/Kv7.5)/EC2x(Kv7.2/Kv7.3): higher SI = better selectivity for Kv7.2/Kv7.3; for EC2x at Kv7.2/Kv7.3 (agonist concentration that doubles the conductance at the voltage leading to 15% channel activation): HEK293 cells, IWB, 10-point concentration-response
T1 construct: expressed in transfected cells; host or cells: HEK293
Method: (§1) Biological evaluation of the new analogs, including RL-81 as a positive standard was performed in the Eli Lilly Open Innovation Drug Discovery (OIDD) program (now discontinued; see https://openinnovation.lilly.com/dd/login.jsp). Ion channel agonistic potency was determined in a high-throughput assay using the automated electrophysiology IonWorks® Barracuda™ (IWB) platform (Molecular Devices, LLC) in HEK293 cells. The resulting 10-point concentration-response curves provide a measure of compound efficacy by determining the agonist concentration that doubles the conductance at the voltage leading to 15% channel activation (EC2x).
Since the primary interest was in optimizing central (Kv7.2/Kv7.3) over peripheral Kv7.4/Kv7.5) tissue activities, a selectivity index (SI) was calculated as the inverse ratio of the EC2x values for these two channel types: SI=EC2x(Kv7.4/Kv7.5)/EC2×(Kv7.2/Kv7.3) The higher the SI ratio, the better the selectivity of the agent for the Kv7.2/Kv7.3 channels.

Kv7.3/Kv7.5 = molecular target: T2, Kv7.3/Kv7.5 (Homo sapiens, UniProt O43525+Q9NR82); assay: Automated electrophysiology IonWorks Barracuda (IWB) agonist assay in HEK293 cells, Kv7.3/Kv7.5; format: cell-based
T2 construct: expressed in transfected cells; host or cells: HEK293
Method: as §1

Kv7.4 = molecular target: T3, Kv7.4 (Homo sapiens, UniProt P56696); assay: Automated electrophysiology IonWorks Barracuda (IWB) agonist assay in HEK293 cells, Kv7.4; format: cell-based
T3 construct: expressed in transfected cells; host or cells: HEK293
Method: as §1

Kv7.4/Kv7.5 = molecular target: T4, Kv7.4/Kv7.5 (Homo sapiens, UniProt P56696+Q9NR82); assay: Automated electrophysiology IonWorks Barracuda (IWB) agonist assay in HEK293 cells, Kv7.4/Kv7.5; format: cell-based
T4 construct: expressed in transfected cells; host or cells: HEK293
Method: as §1

all tested Kv7 channels = assay: Automated electrophysiology IonWorks Barracuda (IWB) agonist assay in HEK293 cells, all tested Kv7 channels; format: cell-based; conditions: for activity at all Kv7 channel types (in words): HEK293 cells, IWB
Method: as §1

KCNQ2/3 = KCNQ2/3 (Homo sapiens, UniProt O43525+O43526); conditions: read-out: EC50 (KCNQ2/3 activator); cited from earlier work

For `Nc1c(NC(=O)OC2CC2)cc(F)c(NCc2ncc(C(F)(F)F)cc2F)c1F` [RL-01, Cyclopropyl (2-amino-3,5-difluoro-4-(((3-fluoro-5-(trifluoromethyl)pyridin-2-yl)methyl)amino)phenyl)carbamate], the “selectivity / potency of 2-pyridyl analogs (in words)” value (Kv7.2/Kv7.3) was “either low selectivity or low potency”.

In the case of `CCOC(=O)Nc1ccc(NCc2cccc(S(F)(F)(F)(F)F)c2)c(F)c1N` [RL-02, Ethyl (2-amino-3-fluoro-4-((3-(pentafluoro-λ^6-sulfanyl)benzyl)amino)phenyl)carbamate], the “selectivity index SI = EC2x(Kv7.4/Kv7.5)/EC2x(Kv7.2/Kv7.3)” value (Kv7.2/Kv7.3) was 1.8.

With `Nc1c(F)c(NCc2ncc(C(F)(F)F)cc2F)cc(F)c1NC(=O)OC1CC1` [RL-12, Cyclopropyl (2-amino-3,6-difluoro-4-(((3-fluoro-5-(trifluoromethyl)pyridin-2-yl)methyl)amino)phenyl)carbamate] the “selectivity index SI = EC2x(Kv7.4/Kv7.5)/EC2x(Kv7.2/Kv7.3)” value (Kv7.2/Kv7.3) was > 10, the “agonist activity at Kv7.3/Kv7.5 (in words)” value (Kv7.3/Kv7.5) was “lacked activity” and the “agonist activity at Kv7.4 (in words)” value (Kv7.4) was “lacked activity”. For the same compound, the “agonist activity at Kv7.4/Kv7.5 (in words)” value (Kv7.4/Kv7.5) was “lacked activity” and the “agonist activity at other channels (in words)” value (all tested Kv7 channels; channels other than Kv7.2/Kv7.3) was “no detectable agonist activity”.

For `CCOC(=O)Nc1ccc(NCc2ccc(C(F)(F)F)cc2F)c(F)c1N` [RL-18, Ethyl (2-amino-3-fluoro-4-((2-fluoro-4-(trifluoromethyl)benzyl)amino)phenyl)carbamate], the “EC2x at Kv7.2/Kv7.3 (agonist concentration that doubles the conductance at the voltage leading to 15% channel activation)” value (Kv7.2/Kv7.3) was 0.18 ± 0.11 µM and the “selectivity index SI = EC2x(Kv7.4/Kv7.5)/EC2x(Kv7.2/Kv7.3)” value (Kv7.2/Kv7.3) was 1.7.

In the case of `CCOC(=O)Nc1ccc(NCc2ccc(C(F)(F)F)c(C#N)n2)c(F)c1N` [RL-23, Ethyl (2-amino-4-(((6-cyano-5-(trifluoromethyl)pyridin-2-yl)methyl)amino)-3-fluorophenyl)carbamate], the “selectivity / potency of 2-pyridyl analogs (in words)” value (Kv7.2/Kv7.3) was “either low selectivity or low potency”.

For `CCOC(=O)Nc1ccc(NCc2ccc(C(F)(F)F)nc2)c(F)c1N` [RL-24, Ethyl (2-amino-3-fluoro-4-(((6-(trifluoromethyl)pyridin-3-yl)methyl)amino)phenyl)carbamate], the “potency compared to 2-pyridyl isomers RL-31 and RL-68 (in words)” value (Kv7.2/Kv7.3) was “essentially equivalent potency” and the “selectivity compared to 2-pyridyl isomers RL-31 and RL-68 (in words)” value (Kv7.2/Kv7.3) was “slightly increased selectivity”.

For `CCOC(=O)Nc1ccc(NCc2ccc(C(F)(F)F)cn2)c(F)c1N` [RL-31, Ethyl (2-amino-3-fluoro-4-(((5-(trifluoromethyl)pyridin-2-yl)methyl)amino)phenyl)carbamate], the “selectivity / potency of 2-pyridyl analogs (in words)” value (Kv7.2/Kv7.3) was “either low selectivity or low potency”.

With `CC(C)OC(=O)Nc1ccc(NCc2ccc(C(F)(F)F)cc2)c(F)c1N` [RL-32, Isopropyl (2-amino-3-fluoro-4-((4-(trifluoromethyl)benzyl)amino)phenyl)carbamate] the “selectivity index SI = EC2x(Kv7.4/Kv7.5)/EC2x(Kv7.2/Kv7.3)” value (Kv7.2/Kv7.3) was 31, the “potency at Kv7.2/Kv7.3 compared with RL-81 (more potent)” value (Kv7.2/Kv7.3; relative to RL-81) was “slightly increased the potency” and the “SI improvement over RL-81” value (Kv7.2/Kv7.3; versus SI=0.3 of RL-81) was 100 ×. For the same compound, the “EC2x at Kv7.4/Kv7.5” value (Kv7.4/Kv7.5) was 4.98 µM.

For `Nc1c(NC(=O)OC2CC2)cc(F)c(NCc2ccc(C(F)(F)F)cc2F)c1F` [RL-36, Cyclopropyl (2-amino-3,5-difluoro-4-((2-fluoro-4-(trifluoromethyl)benzyl)amino)phenyl)carbamate], the “selectivity index SI = EC2x(Kv7.4/Kv7.5)/EC2x(Kv7.2/Kv7.3)” value (Kv7.2/Kv7.3) was > 10, the “agonist activity at Kv7.3/Kv7.5 (in words)” value (Kv7.3/Kv7.5) was “lacked agonist activity” and the “agonist activity at Kv7.4 (in words)” value (Kv7.4) was “lacked agonist activity”. For the same compound, the “agonist activity at Kv7.4/Kv7.5 (in words)” value (Kv7.4/Kv7.5) was “lacked agonist activity”.

In the case of `Nc1c(F)c(NCc2ccc(C(F)(F)F)cc2F)cc(F)c1NC(=O)OC1CC1` [RL-46, Cyclopropyl (2-amino-3,6-difluoro-4-((2-fluoro-4-(trifluoromethyl)benzyl)amino)phenyl)carbamate], the “selectivity index SI = EC2x(Kv7.4/Kv7.5)/EC2x(Kv7.2/Kv7.3)” value (Kv7.2/Kv7.3) was > 7 and the “activity at all Kv7 channel types (in words)” value (all tested Kv7 channels) was “moderately active”.

For `Nc1c(F)c(NCc2ccc(C(F)(F)F)cc2F)c(F)c(F)c1NC(=O)OC1CC1` [RL-50, Cyclopropyl (2-amino-3,5,6-trifluoro-4-((2-fluoro-4-(trifluoromethyl)benzyl)amino)phenyl)carbamate], the “activity at all Kv7 channel types (in words)” value (all tested Kv7 channels) was “lost all activity; also recorded: inactive”.

In the case of `Nc1c(NC(=O)OC2CC2)ccc(NCc2ccc(C(F)(F)F)cc2)c1F` [RL-56, Cyclopropyl (2-amino-3-fluoro-4-((4-(trifluoromethyl)benzyl)amino)phenyl)carbamate], the “EC2x at Kv7.2/Kv7.3 (agonist concentration that doubles the conductance at the voltage leading to 15% channel activation)” value (Kv7.2/Kv7.3) was 0.11 ± 0.02 µM, the “selectivity index SI = EC2x(Kv7.4/Kv7.5)/EC2x(Kv7.2/Kv7.3)” value (Kv7.2/Kv7.3) was 2.5 and the “potency at Kv7.2/Kv7.3 compared with RL-81 (more potent)” value (Kv7.2/Kv7.3; relative to RL-81) was “ca. 3”.

With `Nc1c(NC(=O)OC2CC2)ccc(NCc2ccc(C(F)(F)F)nc2)c1F` [RL-67, Cyclopropyl (2-amino-3-fluoro-4-(((6-(trifluoromethyl)pyridin-3-yl)methyl)amino)phenyl)carbamate] the “potency compared to 2-pyridyl isomers RL-31 and RL-68 (in words)” value (Kv7.2/Kv7.3) was “essentially equivalent potency” and the “selectivity compared to 2-pyridyl isomers RL-31 and RL-68 (in words)” value (Kv7.2/Kv7.3) was “slightly increased selectivity”.

For `Nc1c(NC(=O)OC2CC2)ccc(NCc2ccc(C(F)(F)F)cn2)c1F` [RL-68, Cyclopropyl (2-amino-3-fluoro-4-(((5-(trifluoromethyl)pyridin-2-yl)methyl)amino)phenyl)carbamate], the “selectivity / potency of 2-pyridyl analogs (in words)” value (Kv7.2/Kv7.3) was “either low selectivity or low potency”.

In the case of `CCOC(=O)Nc1cc(F)c(NCc2ccc(C(F)(F)F)cc2)cc1N` [RL-72, Ethyl (2-amino-5-fluoro-4-((4-(trifluoromethyl)benzyl)amino)phenyl)carbamate], the “EC2x at Kv7.2/Kv7.3 (agonist concentration that doubles the conductance at the voltage leading to 15% channel activation)” value (Kv7.2/Kv7.3) was 1.26 µM, the “selectivity index SI = EC2x(Kv7.4/Kv7.5)/EC2x(Kv7.2/Kv7.3)” value (Kv7.2/Kv7.3) was > 7 and the “reduction of potency (EC2x) at Kv7.2/Kv7.3 versus RL-81” value (Kv7.2/Kv7.3; relative to RL-81) was 5 fold. For the same compound, the “EC2x at Kv7.3/Kv7.5” value (Kv7.3/Kv7.5) was > 10 µM, the “EC2x at Kv7.4” value (Kv7.4) was 4.65 µM and the “EC2x at Kv7.4/Kv7.5” value (Kv7.4/Kv7.5) was > 10 µM.

In the case of `CCOC(=O)Nc1ccc(NCc2cccc(C(F)(F)F)c2)c(F)c1N` [RL-73, Ethyl (2-amino-3-fluoro-4-((3-(trifluoromethyl)benzyl)amino)phenyl)carbamate], the “selectivity index SI = EC2x(Kv7.4/Kv7.5)/EC2x(Kv7.2/Kv7.3)” value (Kv7.2/Kv7.3) was 4.7 and the “potency at Kv7.2/Kv7.3 compared with RL-81 (more potent)” value (Kv7.2/Kv7.3; relative to RL-81) was “twice as potent”.

For `CCOC(=O)Nc1cc(C(F)(F)F)c(NCc2ccc(C(F)(F)F)cc2)c(F)c1N` [RL-073, Ethyl (2-amino-3-fluoro-5-(trifluoromethyl)-4-((4-(trifluoromethyl)benzyl)amino)phenyl)carbamate], the “activity at all Kv7 channel types (in words)” value (all tested Kv7 channels) was “completely abrogated activity”.

With `CCOC(=O)Nc1ccc(NCc2ccc(C(F)(F)F)cc2)c(F)c1N` [RL-81, Ethyl (2-amino-3-fluoro-4-((4-(trifluoromethyl)benzyl)amino)phenyl)carbamate] the “selectivity index SI = EC2x(Kv7.4/Kv7.5)/EC2x(Kv7.2/Kv7.3)” value (Kv7.2/Kv7.3) was 0.3, the “EC2x at Kv7.3/Kv7.5” value (Kv7.3/Kv7.5) was 0.29 µM and the “EC2x at Kv7.4” value (Kv7.4) was 0.10 µM. For the same compound, the “efficacy versus flupirtine (FP), times higher” value (all tested Kv7 channels; at all tested Kv7 channels) was 8-50 times, the “efficacy versus retigabine (RG), in words” value (all tested Kv7 channels; at all tested Kv7 channels) was “comparable” and the pEC50 (KCNQ2/3) was 6.59.

For `CCOC(=O)Nc1ccc(NCc2ccc(F)cc2)nc1N` [flupirtine, reference compound], the “selectivity index SI = EC2x(Kv7.4/Kv7.5)/EC2x(Kv7.2/Kv7.3)” value (Kv7.2/Kv7.3) is listed as 1.8 and the pEC50 (KCNQ2/3) is listed as 5.70.

For `CCOC(=O)Nc1ccc(NCc2ccc(F)cc2)cc1N` [retigabine], the pEC50 (KCNQ2/3) is listed as 6.48.
